A short description of data set [1]: Metabolic stability evaluation, human liver microsome. Type of data set: in vitro ADME. As to conditions: liver microsomes, pH 7.4, human liver microsome 0.5 mg/mL, compound 1 μM, NADPH, 37° C.; for microsomal CLint at 1 μM: read-out: HLM CL; for half-life at 1 μM: read-out: HLM T1/2. The method, then: (§1) (4) Metabolic Stability Evaluation
(§2) Microsome experiment: human liver microsome: 0.5 mg/mL, Xenotech; rat liver microsome: 0.5 mg/mL, Xenotech; coenzyme (NADPH/NADH): 1 mM, Sigma Life Science; magnesium chloride: 5 mM, 100 mM phosphate buffer (pH 7.4).
(§3) Preparation of stock solution: a certain amount of the example compound powder and control compound powder were accurately weighed, and respectively dissolved to 5 mM with DMSO.
(§4) Preparation of phosphate buffer (100 mM, pH7.4): 150 mL of 0.5M potassium dihydrogen phosphate and 700 mL of 0.5M dipotassium hydrogen phosphate prepared beforehand were mixed, with pH of the mixture adjusted to 7.4 with 0.5M dipotassium hydrogen phosphate solution. Before use, the mixture was diluted by 5 folds with ultrapure water and magnesium chloride was added to obtain the phosphate buffer (100 mM), which contains 100 mM potassium phosphate, 3.3 mM magnesium chloride, and has pH 7.4.
(§5) NADPH regeneration system solution (containing 6.5 mM NADP, 16.5 mM G-6-P, 3 U/mL G-6-P D, 3.3 mM magnesium chloride) was prepared, and placed on wet ice before use.
(§6) Preparation of stop solution: a solution of 50 ng/mL propranolol hydrochloride and 200 ng/mL tolbutamide (internal standard) in acetonitrile. 25057.5 μL of phosphate buffer (pH 7.4) was taken into a 50 mL centrifuge tube, added with 812.5 μL of human liver microsome, and mixed well to obtain a liver microsome diluent with a protein concentration of 0.625 mg/mL. 25057.5 μL of phosphate buffer (pH 7.4) was taken into a 50 mL centrifuge tube, added with 812.5 μL of SD rat liver microsome, and mixed well to obtain a liver microsome diluent with a protein concentration of 0.625 mg/mL.
(§7) Incubation of the samples: the stock solutions of the corresponding compounds were respectively diluted to 0.25 mM with an aqueous solution containing 70% acetonitrile to obtain working solutions for later use. 398 μL of human liver microsome and rat liver microsome diluents were respectively taken and added to a 96-well incubation plate (N=2), added with 2 μL of 0.25 mM working solution respectively, and mixed well.
Determination of metabolic stability: 300 μL of pre-cooled stop solution was added to each well of a 96-well deep-well plate, and the plate was placed on ice as a stop plate. The 96-well incubation plate and the NADPH regeneration system were placed in a 37° C. water bath, shaken at 100 rpm, and pre-incubated for 5 minutes. 80 μL of incubation solution was taken out of each well of the incubation plate and added to the stop plate, mixed well, and supplemented with 20 μL of NADPH regeneration system solution to obtain the 0 min sample. Then 80 μL of NADPH regeneration system solution was added to each well of the incubation plate to initiate the reaction and start timing. The reaction concentration of the corresponding compound was 1 μM, and the protein concentration was 0.5 mg/mL. At 10, 30, and 90 minutes of reaction, 100 μL of the reaction solution was taken and added to the stop plate, and vortexed for 3 minutes to stop the reaction. The stop plate was centrifuged at 5000×g for 10 min at 4° C. 100 μL of supernatant was taken to a 96-well plate pre-added with 100 μL of distilled water, mixed well, and subjected to sample analysis by LC-MS/MS.
Data analysis: the peak areas of the corresponding compound and internal standard were detected through the LC-MS/MS system, and the ratio of the peak area of the compound to the internal standard was calculated. The natural logarithm of the remaining percentage of the compound was plotted against time to measure the slope and calculate t1/2 and CLint according to the following equations, where V/M is equal to 1/protein concentration.
The compounds of the present invention and the corresponding non-deuterated compounds were simultaneously tested for comparison and evaluated for the metabolic stability in human and rat liver microsomes. The non-deuterated compound Darolutamide was used as the control.
In general terms: Microsomes from liver hold many membrane-bound enzymes, among them those of drug oxidation.

Data set [2] can be described thus: Metabolic stability evaluation, rat liver microsome. The data set is classed as in vitro ADME. As to conditions: SD, liver microsomes, pH 7.4, rat liver microsome 0.5 mg/mL, compound 1 μM, NADPH, 37° C.; for microsomal CLint at 1 μM: read-out: RLM CL; for half-life at 1 μM: read-out: RLM T1/2. The procedure:
as §1, §2, §3, §4, §5, §6, §7
Determination of metabolic stability: 300 μL of pre-cooled stop solution was added to each well of a 96-well deep-well plate, and the plate was placed on ice as a stop plate. […]
Data analysis: the peak areas of the corresponding compound and internal standard were detected through the LC-MS/MS system, and the ratio of the peak area of the compound to the internal standard was calculated. […]
The compounds of the present invention and the corresponding non-deuterated compounds were simultaneously tested for comparison and evaluated for the metabolic stability in human and rat liver microsomes. […]

As to `[2H]C([2H])([C@H](C)NC(=O)c1cc(C(C)O)[nH]n1)n1ccc(-c2ccc(C#N)c(Cl)c2)n1` (stereo partly drawn) [Example 4, N—((S)-1-(3-(3-chloro-4-cyanophenyl)-1H-pyrazol-1-yl)prop-2-yl-1,1-d2)-5-(1-hydroxyethyl)-1H-pyrazole-3-carboxamide], in data set [1], the microsomal CLint at 1 μM was determined as 8.5 µL/min/mg and the half-life at 1 μM was determined as 2.7 h.
On the same counts, the results for `[2H]C([2H])([2H])C(O)c1cc(C(=O)N[C@@H](C)Cn2ccc(-c3ccc(C#N)c(Cl)c3)n2)n[nH]1` (stereo partly drawn) [Example 2, N—((S)-1-(3-(3-chloro-4-cyanophenyl)-1H-pyrazol-1-yl)prop-2-yl)-5-(1-hydroxylethyl-2,2,2-d3)-1H-pyrazole-3-carboxamide] are 9.1 µL/min/mg and 2.55 h.
Taken in the same sequence, the figures for `[2H]C([2H])([2H])C([2H])(O)c1cc(C(=O)N[C@@H](C)Cn2ccc(-c3ccc(C#N)c(Cl)c3)n2)n[nH]1` (stereo partly drawn) [Example 3, N—((S)-1-(3-(3-chloro-4-cyanophenyl)-1H-pyrazol-1-yl)prop-2-yl)-5-(1-hydroxylethyl-1,2,2,2-d4)-1H-pyrazole-3-carboxamide] were 4 µL/min/mg and 5.83 h.
For the compound `[2H]C([2H])([2H])[C@H](NC(=O)c1cc(C(C)O)[nH]n1)C([2H])([2H])n1ccc(-c2ccc(C#N)c(Cl)c2)n1` (stereo partly drawn) [Example 9, N—((S)-1-(3-(3-chloro-4-cyanophenyl)-1H-pyrazol-1-yl)prop-2-yl-1,1,3,3,3-d5)-5-(1-hydroxyethyl)-1H-pyrazole-3-carboxamide], in data set [1], the microsomal CLint at 1 μM was 8.1 µL/min/mg and the half-life at 1 μM was found to be 2.85 h.
Taken in the same sequence, the figures for `[2H][C@](C)(Cn1ccc(-c2ccc(C#N)c(Cl)c2)n1)NC(=O)c1cc(C(C)O)[nH]n1` (stereo partly drawn) [Example 8, N—((S)-1-(3-(3-chloro-4-cyanophenyl)-1H-pyrazol-1-yl)prop-2-yl-2-d)-5-(1-hydroxyethyl)-1H-pyrazole-3-carboxamide] were 7.3 µL/min/mg and 3.17 h.
On the same counts, the results for `[2H]C(C)(O)c1cc(C(=O)N[C@@H](C)Cn2ccc(-c3ccc(C#N)c(Cl)c3)n2)n[nH]1` (stereo partly drawn) [Example 1, N—((S)-1-(3-(3-chloro-4-cyanophenyl)-1H-pyrazol-1-yl)prop-2-yl)-5-(1-hydroxylethyl-1-d)-1H-pyrazole-3-carboxamide] are 6.2 µL/min/mg and 3.7 h.
Regarding `CC(O)c1cc(C(=O)N[C@@H](C)Cn2ccc(-c3ccc(C#N)c(Cl)c3)n2)[nH]n1` (stereo partly drawn) [Darolutamide, N—((S)-1-(3-(3-chloro-4-cyanophenyl)-1H-pyrazol-1-yl)-prop-2-yl)-5-(1-hydroxyethyl)-1H-pyrazole-3-carboxamide, reference compound], in data set [1], the microsomal CLint at 1 μM stood at 8.5 µL/min/mg and the half-life at 1 μM came to 2.72 h. In data set [2], the microsomal CLint at 1 μM came to 12.2 µL/min/mg and the half-life at 1 μM was determined as 1.9 h.
With `[2H]C(C)(O)c1cc(C(=O)N[C@@H](C([2H])([2H])[2H])C([2H])([2H])n2ccc(-c3ccc(C#N)c(Cl)c3)n2)n[nH]1` (stereo partly drawn) [Example 10, N—((S)-1-(3-(3-chloro-4-cyanophenyl)-1H-pyrazol-1-yl)prop-2-yl-1,1,3,3,3-d5)-5-(1-hydroxyethyl-1-d)-1H-pyrazole-3-carboxamide], in data set [1], the microsomal CLint at 1 μM is 4.4 µL/min/mg and the half-life at 1 μM came out at 5.29 h.
On to `[2H]C([2H])([2H])C(O)c1cc(C(=O)N[C@@H](C)C([2H])([2H])n2ccc(-c3ccc(C#N)c(Cl)c3)n2)n[nH]1` (stereo partly drawn) [Example 6, N—((S)-1-(3-(3-chloro-4-cyanophenyl)-1H-pyrazol-1-yl)prop-2-yl-1,1-d2)-5-(1-hydroxyethyl-2,2,2-d3)-1H-pyrazole-3-carboxamide], for which, in data set [1], the microsomal CLint at 1 μM is 6.4 µL/min/mg and the half-life at 1 μM turned out to be 3.62 h.
As for `[2H]C([2H])([C@H](C)NC(=O)c1cc(C([2H])(O)C([2H])([2H])[2H])[nH]n1)n1ccc(-c2ccc(C#N)c(Cl)c2)n1` (stereo partly drawn) [Example 7, N—((S)-1-(3-(3-chloro-4-cyanophenyl)-1H-pyrazol-1-yl)prop-2-yl-1,1-d2)-5-(1-hydroxyethyl-1,2,2,2-d4)-1H-pyrazole-3-carboxamide], in data set [1], the microsomal CLint at 1 μM turned out to be 6.9 µL/min/mg and the half-life at 1 μM worked out at 3.36 h. In data set [2], the microsomal CLint at 1 μM is 7.1 µL/min/mg and the half-life at 1 μM worked out at 3.25 h.
With `[2H]C(C)(O)c1cc(C(=O)N[C@@H](C)C([2H])([2H])n2ccc(-c3ccc(C#N)c(Cl)c3)n2)n[nH]1` (stereo partly drawn) [Example 5, N—((S)-1-(3-(3-chloro-4-cyanophenyl)-1H-pyrazol-1-yl)prop-2-yl-1,1-d2)-5-(1-hydroxyethyl-1-d)-1H-pyrazole-3-carboxamide], in data set [1], the microsomal CLint at 1 μM amounted to 4.3 µL/min/mg and the half-life at 1 μM was 5.36 h.

The values are drawn from patent US11802113B2, “Substituted pyrazole compounds, compositions containing same, and use thereof” (Shenzhen TargetRx, Inc., priority 2019, dated 2023).
